{"source": "patent US20030078237A1", "about": "“Phenanthryl piperazinyl dicarboxylic acids as selective nmda receptor modulating agents” (priority 1999, published 2003)", "key": {"NR1/NR2D [1]": {"biological_target": "T1, NR1/NR2D (Rattus norvegicus, UniProt Q62645)", "T1 construct": "expressed in transfected cells; host or cells: Xenopus oocytes injected with in vitro transcribed RNA", "T1 sequence (Q62645 28-1323, other chains not shown)": "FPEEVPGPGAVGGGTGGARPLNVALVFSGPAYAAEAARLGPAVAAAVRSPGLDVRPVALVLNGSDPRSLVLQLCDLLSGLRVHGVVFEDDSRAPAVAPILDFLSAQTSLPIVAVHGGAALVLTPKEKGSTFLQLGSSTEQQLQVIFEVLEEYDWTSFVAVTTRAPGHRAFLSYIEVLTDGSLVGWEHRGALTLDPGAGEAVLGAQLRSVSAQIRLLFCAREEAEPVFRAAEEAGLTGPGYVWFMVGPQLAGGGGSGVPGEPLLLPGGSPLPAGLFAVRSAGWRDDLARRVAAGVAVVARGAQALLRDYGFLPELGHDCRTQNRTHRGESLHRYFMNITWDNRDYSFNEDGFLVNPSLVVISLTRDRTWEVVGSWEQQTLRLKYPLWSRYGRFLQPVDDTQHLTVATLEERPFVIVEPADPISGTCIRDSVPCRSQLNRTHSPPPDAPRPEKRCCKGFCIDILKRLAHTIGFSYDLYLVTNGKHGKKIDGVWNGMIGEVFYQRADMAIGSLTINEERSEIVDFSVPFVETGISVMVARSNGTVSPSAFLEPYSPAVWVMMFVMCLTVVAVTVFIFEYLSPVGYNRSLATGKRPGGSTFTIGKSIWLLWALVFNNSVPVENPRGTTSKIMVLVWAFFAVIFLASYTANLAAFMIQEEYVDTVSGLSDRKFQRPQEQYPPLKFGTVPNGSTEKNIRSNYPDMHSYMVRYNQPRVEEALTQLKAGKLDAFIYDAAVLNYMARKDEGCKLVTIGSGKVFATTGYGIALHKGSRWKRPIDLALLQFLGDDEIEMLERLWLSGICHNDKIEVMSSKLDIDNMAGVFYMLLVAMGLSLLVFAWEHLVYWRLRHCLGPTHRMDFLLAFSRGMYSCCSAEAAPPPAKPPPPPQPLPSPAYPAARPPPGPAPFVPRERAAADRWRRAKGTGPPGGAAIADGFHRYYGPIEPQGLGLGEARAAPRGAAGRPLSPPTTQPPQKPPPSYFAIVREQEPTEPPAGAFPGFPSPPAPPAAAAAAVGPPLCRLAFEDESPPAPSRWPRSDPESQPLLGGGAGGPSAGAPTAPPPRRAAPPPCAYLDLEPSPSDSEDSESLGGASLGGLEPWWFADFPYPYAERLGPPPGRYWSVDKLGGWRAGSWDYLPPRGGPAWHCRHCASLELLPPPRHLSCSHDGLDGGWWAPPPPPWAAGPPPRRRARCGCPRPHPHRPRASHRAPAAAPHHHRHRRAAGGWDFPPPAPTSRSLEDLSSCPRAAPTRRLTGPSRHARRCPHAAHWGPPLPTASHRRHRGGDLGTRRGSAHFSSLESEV", "conditions": "recombinant, Xenopus oocytes; from Buller and Monaghan 1997, mean +/- SEM, n=4-6; cited from earlier work"}, "NR1/NR2B [2]": {"biological_target": "T2, NR1/NR2B (Rattus norvegicus, UniProt Q00960)", "T2 construct": "expressed in transfected cells; host or cells: Xenopus oocytes injected with in vitro transcribed RNA", "conditions": "recombinant, Xenopus oocytes; from Buller and Monaghan 1997, mean +/- SEM, n=4-6; cited from earlier work"}, "NR1/NR2A [3]": {"biological_target": "T3, NR1/NR2A (Rattus norvegicus, UniProt Q00959)", "T3 construct": "expressed in transfected cells; host or cells: Xenopus oocytes injected with in vitro transcribed RNA", "T3 sequence (Q00959 23-1464, other chains not shown)": "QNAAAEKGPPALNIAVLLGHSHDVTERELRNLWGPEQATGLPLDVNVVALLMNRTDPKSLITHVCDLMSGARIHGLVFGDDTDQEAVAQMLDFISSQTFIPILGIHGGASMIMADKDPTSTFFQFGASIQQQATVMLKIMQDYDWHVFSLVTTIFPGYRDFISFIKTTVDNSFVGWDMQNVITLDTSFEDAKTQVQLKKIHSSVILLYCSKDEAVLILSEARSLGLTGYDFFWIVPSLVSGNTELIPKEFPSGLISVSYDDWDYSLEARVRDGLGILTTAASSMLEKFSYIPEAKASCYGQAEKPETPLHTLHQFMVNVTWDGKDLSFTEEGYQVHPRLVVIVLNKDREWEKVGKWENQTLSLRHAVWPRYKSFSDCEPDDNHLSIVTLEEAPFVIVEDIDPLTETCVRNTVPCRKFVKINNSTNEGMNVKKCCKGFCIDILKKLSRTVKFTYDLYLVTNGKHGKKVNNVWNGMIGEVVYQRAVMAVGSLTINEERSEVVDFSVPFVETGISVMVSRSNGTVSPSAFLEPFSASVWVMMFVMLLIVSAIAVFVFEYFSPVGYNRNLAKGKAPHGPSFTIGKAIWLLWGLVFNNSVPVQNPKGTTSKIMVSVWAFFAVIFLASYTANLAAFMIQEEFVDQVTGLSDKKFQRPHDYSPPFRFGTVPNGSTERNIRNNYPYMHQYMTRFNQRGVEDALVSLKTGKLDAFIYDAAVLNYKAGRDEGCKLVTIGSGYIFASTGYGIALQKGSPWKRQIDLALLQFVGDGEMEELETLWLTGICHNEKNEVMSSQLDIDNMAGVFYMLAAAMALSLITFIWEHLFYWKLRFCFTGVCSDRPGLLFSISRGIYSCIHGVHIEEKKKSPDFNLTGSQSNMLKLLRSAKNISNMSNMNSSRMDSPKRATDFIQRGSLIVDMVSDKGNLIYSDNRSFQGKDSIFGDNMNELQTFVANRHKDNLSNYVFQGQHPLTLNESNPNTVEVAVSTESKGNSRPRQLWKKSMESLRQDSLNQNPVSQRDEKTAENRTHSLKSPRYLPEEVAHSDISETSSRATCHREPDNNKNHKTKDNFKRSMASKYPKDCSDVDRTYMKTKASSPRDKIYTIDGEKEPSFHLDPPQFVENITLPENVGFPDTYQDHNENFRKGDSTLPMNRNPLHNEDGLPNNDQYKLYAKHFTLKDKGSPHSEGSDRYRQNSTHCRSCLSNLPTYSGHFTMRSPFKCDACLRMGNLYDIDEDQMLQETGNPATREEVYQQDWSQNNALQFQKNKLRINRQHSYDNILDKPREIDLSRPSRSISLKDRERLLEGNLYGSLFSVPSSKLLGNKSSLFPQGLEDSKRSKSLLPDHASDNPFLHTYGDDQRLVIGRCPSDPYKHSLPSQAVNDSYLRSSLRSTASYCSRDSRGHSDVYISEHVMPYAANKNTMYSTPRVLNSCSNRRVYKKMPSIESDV", "conditions": "recombinant, Xenopus oocytes; from Buller and Monaghan 1997, mean +/- SEM, n=4-6; cited from earlier work"}, "NR1/NR2C [4]": {"biological_target": "T4, NR1/NR2C (Rattus norvegicus, UniProt Q00961)", "T4 construct": "expressed in transfected cells; host or cells: Xenopus oocytes injected with in vitro transcribed RNA", "T4 sequence (Q00961 20-1237, other chains not shown)": "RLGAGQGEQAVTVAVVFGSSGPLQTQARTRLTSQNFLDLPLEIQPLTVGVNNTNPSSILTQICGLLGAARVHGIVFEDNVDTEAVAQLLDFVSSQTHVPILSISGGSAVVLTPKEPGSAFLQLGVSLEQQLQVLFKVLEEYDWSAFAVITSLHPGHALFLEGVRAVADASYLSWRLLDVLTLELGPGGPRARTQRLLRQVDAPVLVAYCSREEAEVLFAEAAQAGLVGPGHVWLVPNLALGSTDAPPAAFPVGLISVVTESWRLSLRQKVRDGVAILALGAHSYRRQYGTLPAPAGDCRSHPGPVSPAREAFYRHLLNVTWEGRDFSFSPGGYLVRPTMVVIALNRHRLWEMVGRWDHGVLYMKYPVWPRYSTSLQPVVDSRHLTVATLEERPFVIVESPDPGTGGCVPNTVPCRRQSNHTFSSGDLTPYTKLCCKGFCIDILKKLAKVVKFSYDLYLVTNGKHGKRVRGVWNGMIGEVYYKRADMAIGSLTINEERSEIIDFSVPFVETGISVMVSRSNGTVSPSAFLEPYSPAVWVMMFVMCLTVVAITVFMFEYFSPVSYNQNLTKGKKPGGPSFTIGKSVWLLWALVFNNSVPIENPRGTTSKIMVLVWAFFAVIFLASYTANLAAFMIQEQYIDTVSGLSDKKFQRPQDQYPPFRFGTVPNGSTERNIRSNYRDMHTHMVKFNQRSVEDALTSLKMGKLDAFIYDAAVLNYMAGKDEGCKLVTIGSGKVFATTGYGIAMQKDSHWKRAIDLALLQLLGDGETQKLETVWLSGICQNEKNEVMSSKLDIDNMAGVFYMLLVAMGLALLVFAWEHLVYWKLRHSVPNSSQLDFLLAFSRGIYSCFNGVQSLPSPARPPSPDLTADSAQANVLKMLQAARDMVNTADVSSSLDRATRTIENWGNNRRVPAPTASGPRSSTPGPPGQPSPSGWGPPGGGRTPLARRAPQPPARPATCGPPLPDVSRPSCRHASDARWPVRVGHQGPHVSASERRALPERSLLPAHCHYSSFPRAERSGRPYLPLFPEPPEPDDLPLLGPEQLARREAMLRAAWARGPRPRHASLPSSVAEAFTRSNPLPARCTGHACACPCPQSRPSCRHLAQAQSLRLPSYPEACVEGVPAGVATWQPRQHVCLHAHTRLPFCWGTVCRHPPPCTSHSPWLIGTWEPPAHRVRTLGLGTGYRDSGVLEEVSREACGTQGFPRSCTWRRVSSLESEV", "conditions": "recombinant, Xenopus oocytes; from Buller and Monaghan 1997, mean +/- SEM, n=4-6; cited from earlier work"}, "[5]": {"tested_on": "kainate subtype of glutamate receptors", "experiment": "kainate-induced depolarizations on neonatal rat motoneurones", "type": "cell-based", "conditions": "PPDA 5 μM, kainate 50 μM", "description": "(§1) Hemisected neonatal rat spinal cords (Evans and Watkins, European Journal of Pharmacology, 50: 123-129, 1978) were isolated and wire electrodes were placed under the exposed ventral roots. The preparation was superfused with standard Ringers (containing in mM: NaCl 118, NaHCO3 25, KCl 3, CaCl2 2.5, D-glucose 12 and gassed with 95% O2/5% CO2). To record agonist-induced responses, 0.1 μM tetrodotoxin was included to block synaptic transmission and associated depolarizations. Agonist (N-methyl-D-aspartate (NMDA)) was superfused for 60-120 seconds at a rate of 1 ml/minute. The relative positive potentials recorded by the distal (to spinal cord) wire electrode compared to the proximal electrode was taken as an indication of motor neuron cell body depolarization. Antagonism of agonist-induced responses was observed by co-application of the antagonist PPDA.\n(§2) AMPA and kainate are protypical agonists which show selectivity for, and predominantly activate, the AMPA and kainate subtypes of glutamate receptors. In additional assays, PPDA was tested at a concentration of 5 μM (which is approximately 20 times the Kd value for the antagonism of NMDA receptors) as an antagonist of AMPA (6 μM)-, kainate (50 μM)- and NMDA (50 μM)-induced depolarizations (approximate EC50 concentrations used) on neonatal rat motoneurones."}, "[6]": {"biological_target": "T5, Native NMDA receptor, Medial Striatum (NR2B) (Rattus norvegicus, UniProt Q00960)", "T5 construct": "Native NMDA Receptor Potency; from tissue; host or cells: rat brain sections, medial striatum", "experiment": "quantitative receptor autoradiography of [3H]-glutamate labeled native NMDA receptors, medial striatum", "type": "binding", "description": "(§3) PPDA (50 μM) also had no effect on depolarizations following administration of (1S,3R)-1-amino-1,3-cyclopentane dicarboxylic acid (ACPD; 30 μM). APCD is a Group I metabotropic glutamate (mGlu) receptor agonist. The recited values were determined by using quantitative receptor autoradiography of [^3H]-glutamate labeled NMDA receptors in rat brain tissue sections.\n(§4) The potency of PPDA for native NMDA receptors was also investigated in a Xenopus oocyte system."}, "NMDA receptors": {"tested_on": "NMDA receptors", "experiment": "NMDA-induced depolarizations of motoneurones, hemisected neonatal rat spinal cord", "type": "cell-based", "description": "as §1, §2"}, "[7]": {"tested_on": "AMPA subtype of glutamate receptors", "experiment": "AMPA-induced depolarizations on neonatal rat motoneurones", "type": "cell-based", "conditions": "PPDA 5 μM, AMPA 6 μM", "description": "as §1, §2"}, "[8]": {"biological_target": "T6, Native NMDA receptor, Cerebellum (NR2A) (Rattus norvegicus, UniProt Q00959)", "T6 construct": "Native NMDA Receptor Potency; from tissue; host or cells: rat brain sections, cerebellum", "experiment": "quantitative receptor autoradiography of [3H]-glutamate labeled native NMDA receptors, cerebellum NR2A", "type": "binding", "description": "as §3, §4"}, "native AMPA receptors": {"tested_on": "native AMPA receptors", "experiment": "autoradiography, [3H]CNQX binding to native AMPA receptors", "conditions": "PPDA 10 μM; 100 nM [3H]CNQX; n=3"}, "[9]": {"tested_on": "native non-NMDA glutamate receptors ([3H]kainate binding)", "experiment": "autoradiography, [3H]kainate binding", "conditions": "PPDA 10 μM; 25 nM [3H]kainate; n=3"}, "NR1/NR2D [10]": {"biological_target": "T7, NR1/NR2D (Rattus norvegicus, UniProt P35439+Q62645)", "T7 construct": "expressed in transfected cells; host or cells: Xenopus oocytes injected with in vitro transcribed RNA", "T7 sequence (Q62645 28-1323, other chains not shown)": "as the sequence (Q62645 28-1323, other chains not shown) above", "experiment": "two-microelectrode voltage clamp of recombinant NMDA receptors in Xenopus oocytes, NR1/NR2D", "type": "cell-based", "description": "(§5) RNA translation and transcription in Xenopus oocytes and electrophysiological recordings were performed as previously described (Monaghan D T, Larson H (1997) J Pharmacol Exp Ther 280:614 -620). Plasmids were linearized with NotI (NR1a), EcoRI (NR2A, NR2C, and NR2D), or SalI (NR2B) and transcribed in vitro using the mMessage mMachine RNA polymerase transcription kit (Ambion, Austin, Tex.). NR1 a was mixed 1:3 with NR2A, NR2B, NR2C, or NR2D RNA, and 2-50 ng of this mixture was injected into oocytes. Agonist-evoked responses were measured using a standard two-microelectrode voltage clamp (model OC-725B Oocyte Clamp; Warner Instruments, Hamden, Conn.) at a holding potential of −60 mV. Glutamate (10 μM) and glycine (10 μM) were applied until stable plateau responses were obtained; (±)-cis-1-(phenanthren-2-yl-carbonyl)-piperazine-2,3-dicarboxylic acid (PPDA) (0.1, 0.3, 1, 3, 10, or 30 μM) was then applied until steady-state blockade was obtained, followed by antagonist washout and full agonist responses. Current responses were captured and analyzed with AxoData (Axon Instruments, Foster City, Calif.) and GraphPad Prism (ISI Software, San Diego, Calif.) software. Ki values were corrected for agonist affinity according to the Cheng-Prusoff equation. Data in Table 3 are expressed as mean Kl±SEM. […]"}, "[11]": {"biological_target": "Native NMDA receptor, Midline thalamus (NR2B/NR2D)", "experiment": "quantitative receptor autoradiography of [3H]-glutamate labeled native NMDA receptors, midline thalamus", "type": "binding", "conditions": "[3H]-glutamate autoradiography, rat brain sections; read-out: Ki, native NMDA receptor potency, Midline thalamus (NR2B/NR2D)", "description": "as §3, §4"}, "[12]": {"tested_on": "Group I metabotropic glutamate (mGlu) receptor", "experiment": "ACPD-induced depolarizations on neonatal rat motoneurones", "type": "cell-based", "conditions": "PPDA 50 μM; ACPD 30 μM", "description": "as §1, §3"}, "[13]": {"biological_target": "T8, Native NMDA receptor, Cerebellum (NR2C) (Rattus norvegicus, UniProt Q00961)", "T8 construct": "Native NMDA Receptor Potency; from tissue; host or cells: rat brain sections, cerebellum", "T8 sequence (Q00961 20-1237, other chains not shown)": "as the sequence (Q00961 20-1237, other chains not shown) above", "experiment": "quantitative receptor autoradiography of [3H]-glutamate labeled native NMDA receptors, cerebellum NR2C", "type": "binding", "description": "as §3, §4"}, "NR1/NR2C [14]": {"biological_target": "T9, NR1/NR2C (Rattus norvegicus, UniProt P35439+Q00961)", "T9 construct": "expressed in transfected cells; host or cells: Xenopus oocytes injected with in vitro transcribed RNA", "T9 sequence (Q00961 20-1237, other chains not shown)": "as above", "experiment": "two-microelectrode voltage clamp of recombinant NMDA receptors in Xenopus oocytes, NR1/NR2C", "type": "cell-based", "description": "as §5"}, "NR1/NR2B [15]": {"biological_target": "T10, NR1/NR2B (Rattus norvegicus, UniProt P35439+Q00960)", "T10 construct": "expressed in transfected cells; host or cells: Xenopus oocytes injected with in vitro transcribed RNA", "experiment": "two-microelectrode voltage clamp of recombinant NMDA receptors in Xenopus oocytes, NR1/NR2B", "type": "cell-based", "description": "as §5"}, "NR1/NR2A [16]": {"biological_target": "T11, NR1/NR2A (Rattus norvegicus, UniProt P35439+Q00959)", "T11 construct": "expressed in transfected cells; host or cells: Xenopus oocytes injected with in vitro transcribed RNA", "experiment": "two-microelectrode voltage clamp of recombinant NMDA receptors in Xenopus oocytes, NR1/NR2A", "type": "cell-based", "conditions": "NR1a co-expressed in Xenopus oocytes, mean +/- SEM", "description": "as §5"}}, "note": "pKd, pKi: −log10 of the molar value. Like-named read-outs stand apart in the source and are kept apart here."}
{"compound": "N[C@H](CCCP(=O)(O)O)C(=O)O", "note": "[D-AP5]", "values": [{"measurement": "pKi", "setting": "NR1/NR2D [1]", "value": 5.43}, {"measurement": "pKi", "setting": "NR1/NR2B [2]", "value": 6.34}, {"measurement": "pKi", "setting": "NR1/NR2A [3]", "value": 6.55}, {"measurement": "pKi", "setting": "NR1/NR2C [4]", "value": 5.79}]}
{"compound": "O=C(O)C1CN(CC=CP(=O)(O)O)CCN1", "note": "(stereo not drawn) [CPP-ene, 4-(3-phosphonoprop-2-enyl)piperazine-2-carboxylic acid]", "values": [{"measurement": "pKi", "setting": "NR1/NR2D [1]", "value": 5.74}, {"measurement": "pKi", "setting": "NR1/NR2B [2]", "value": 6.85}, {"measurement": "pKi", "setting": "NR1/NR2A [3]", "value": 6.96}, {"measurement": "pKi", "setting": "NR1/NR2C [4]", "value": 5.84}]}
{"compound": "O=C(O)[C@H]1NCCN(C(=O)c2ccc3c(ccc4ccccc43)c2)[C@H]1C(=O)O", "note": "(racemic) [PPDA, (±)-cis-1-(Phenanthrene-2-ylcarbonyl)Piperazine-2,3-Dicarboxylic Acid]", "values": [{"measurement": "antagonism of kainate-induced depolarizations", "setting": "[5]", "value": 21, "unit": "%"}, {"measurement": "pKi", "setting": "[6]", "value": 6.27}, {"measurement": "antagonism of NMDA-induced depolarizations", "setting": "NMDA receptors; PPDA 5 μM, NMDA 50 μM, neonatal rat motoneurones", "value": 88, "unit": "%"}, {"measurement": "pKd", "setting": "NMDA receptors; neonatal rat spinal cord, competitive antagonist, read-out: affinity (Kd), Schild analysis of NMDA-induced depolarizations", "value": 6.61}, {"measurement": "potency as antagonist of NMDA-induced depolarizations relative to CPP-ene", "setting": "NMDA receptors; spinal cord", "value": "as potent as CPP-ene"}, {"measurement": "antagonism of AMPA-induced depolarizations", "setting": "[7]", "value": 15, "unit": "%"}, {"measurement": "pKi", "setting": "[8]", "value": 5.14}, {"measurement": "inhibition of [3H]CNQX binding to native AMPA receptors", "setting": "native AMPA receptors", "value": "44.6±1.3", "unit": "%"}, {"measurement": "inhibition of [3H]kainate binding", "setting": "[9]", "value": "9.3±6.7", "unit": "%"}, {"measurement": "pKi", "setting": "NR1/NR2D [10]", "value": 6.96}, {"measurement": "pKi", "setting": "[11]", "value": 6.51}, {"measurement": "effect on ACPD-induced depolarizations", "setting": "[12]", "value": "no effect"}, {"measurement": "pKi", "setting": "[13]", "value": 6.41}, {"measurement": "pKi", "setting": "NR1/NR2C [14]", "value": 7.15}, {"measurement": "pKi", "setting": "NR1/NR2B [15]", "value": 6.46}]}
{"compound": "O=C(O)C1NCCN(C(=O)c2ccc(-c3ccccc3)cc2)C1C(=O)O", "note": "(stereo not drawn) [PBPD, 1-(4-phenylbenzoyl)-piperazine-2,3-dicarboxylic acid, reference compound]", "values": [{"measurement": "pKi", "setting": "NR1/NR2D [10]; recombinant, NR1a co-expressed in Xenopus oocytes, mean +/- SEM, read-out: NR1/NR2D Ki", "value": 5.37}, {"measurement": "pKi", "setting": "NR1/NR2A [16]", "value": 4.80}, {"measurement": "pKi", "setting": "NR1/NR2C [14]; recombinant, NR1a co-expressed in Xenopus oocytes, mean +/- SEM, read-out: NR1/NR2C Ki", "value": 5.05}, {"measurement": "pKi", "setting": "NR1/NR2B [15]; recombinant, NR1a co-expressed in Xenopus oocytes, mean +/- SEM, read-out: NR1/NR2B Ki", "value": 5.30}]}
